According to DBAASP:
Converted amounts (≈) assume the structure as drawn. Values belong to the compound of their own block, whether it stands above or below them.

Tests used:
Experiment in all cases: ≥ marks a high value that may be exact or a test limit, other limits are often not marked, values filed in µg/mL are converted to µM
[1] = system: Staphylococcus aureus ATCC 6538P
[2] = system: Staphylococcus aureus SR1550
[3] = system: Escherichia coli K-12 594
[4] = system: Bacillus subtilis CMCC 63501
[5] = system: Staphylococcus aureus CMCC 26003
[6] = system: Listeria monocytogenes ATCC 19115
Vibrio cholerae = system: Vibrio cholerae
[7] = system: Xanthomonas axonopodis ITCC BD00029
[8] = system: Xanthomonas oryzae ITCC BB00026
[9] = system: Salmonella enterica subsp. enterica serovar Typhi
[10] = system: Candida albicans MTCC 227
[11] = system: Fusarium solani MTCC 10158
[12] = system: Staphylococcus aureus ATCC 43300
Bacillus cereus = system: Bacillus cereus
[13] = system: Escherichia coli DH5alpha
[14] = system: Staphylococcus aureus 5118
[15] = system: Staphylococcus aureus ATCC 9144
[16] = system: Staphylococcus aureus E4049
[17] = system: Pseudomonas aeruginosa 5167
[18] = system: Pseudomonas aeruginosa 1570
[19] = system: Pseudomonas aeruginosa 8600
[20] = system: Escherichia coli ATCC 25922
[21] = system: Staphylococcus aureus ATCC 25923
[22] = system: Staphylococcus epidermidis ATCC 35984
[23] = system: Staphylococcus aureus ATCC 33591
[24] = system: Pseudomonas aeruginosa ATCC 47615
[25] = system: Staphylococcus aureus ATCC 29213
[26] = system: Pseudomonas aeruginosa ATCC 27853
[27] = system: Rhizopus stolonifer CECT 2344
[28] = system: Xanthomonas vesicatoria 2133-2
[29] = system: Erwinia amylovora PMV 6076
[30] = system: Aspergillus niger CECT 2694
[31] = system: Fusarium oxysporum f. sp. lycopersici ATCC 201829
[32] = system: Penicillium expansum EPS 26
[33] = system: Pseudomonas syringae EPS 94
[34] = system: Micrococcus luteus 1D00051
[35] = system: Staphylococcus aureus 1D00101
[36] = system: Vibrio vulnificus 1H00066

SMILES: CC[C@H](C)[C@H](NC(=O)[C@H](CCCN=C(N)N)NC(=O)[C@H](CCCN=C(N)N)NC(=O)[C@H](Cc1c[nH]c2ccccc12)NC(=O)[C@@H](N)Cc1ccccc1)C(=O)N[C@@H](CCCN=C(N)N)C(=O)N[C@H](C(N)=O)C(C)C [FWRRIRV]
- MIC [4]: ≥ 124 µM
- MIC [5]: ≥ 62 µM
- MIC [6]: 31 µM (≈ 32 µg/mL)

SMILES: NCCCC[C@H](NC(=O)[C@H](CCCCN)NC(=O)[C@H](CO)NC(=O)[C@H](CO)NC(=O)[C@H](CCCCN)NC(=O)[C@H](Cc1c[nH]c2ccccc12)NC(=O)[C@H](CCCN=C(N)N)NC(=O)[C@H](Cc1c[nH]c2ccccc12)NC(=O)[C@H](CCCN=C(N)N)NC(=O)[C@@H](N)CO)C(=O)O [SRWRWKSSKK]
- MIC (Vibrio cholerae): 30 µM (≈ 40.5 µg/mL)
- MIC [7]: 10 µM (≈ 13.5 µg/mL)
- MIC [8]: 10 µM (≈ 13.5 µg/mL)
- MIC [9]: 20 µM (≈ 27 µg/mL)
- MIC [10]: ≥ 40 µM
- MIC [11]: 20 µM (≈ 27 µg/mL)
- MIC [12]: 20 µM (≈ 27 µg/mL)
- MIC (Bacillus cereus): 30 µM (≈ 40.5 µg/mL)
- MIC [13]: 30 µM (≈ 40.5 µg/mL)

SMILES: CC[C@H](C)[C@H](NC(=O)CNC(=O)[C@H](CC(=O)O)NC(=O)[C@@H](N)CC(=O)O)C(=O)N[C@@H](Cc1ccccc1)C(=O)N[C@H](C(=O)N[C@@H](C)C(=O)N[C@@H](Cc1ccccc1)C(=O)N[C@H](C(=O)N[C@@H](C)C(=O)N[C@H](C(=O)N[C@@H](CC(N)=O)C(=O)N[C@H](C(=O)N[C@H](C(=O)N[C@@H](CC(C)C)C(=O)N[C@H](C(=O)N[C@H](C(=O)N[C@H](C(=O)N[C@@H](Cc1ccccc1)C(=O)N[C@@H](Cc1ccc(O)cc1)C(=O)O)[C@@H](C)CC)C(C)C)[C@@H](C)O)[C@@H](C)CC)[C@@H](C)CC)[C@@H](C)CC)[C@@H](C)CC)[C@@H](C)CC [DDGIFIAFIAINIILTVIFY]
- MIC [14]: 2.2 µM (≈ 5 µg/mL)
- MIC [15]: ≥ 271 µM
- MIC [16]: ≥ 271 µM

SMILES: CC[C@H](C)[C@H](NC(=O)[C@H](CCCCN)NC(=O)[C@@H](NC(=O)[C@H](Cc1ccccc1)NC(=O)[C@H](C)NC(=O)[C@H](CCCCN)NC(=O)CNC(=O)[C@H](Cc1ccccc1)NC(=O)[C@H](CCCCN)NC(=O)[C@H](CCCCN)NC(=O)[C@H](C)NC(=O)[C@H](CCCCN)NC(=O)[C@H](CCCCN)NC(=O)[C@H](CC(C)C)NC(=O)[C@H](Cc1ccccc1)NC(=O)[C@@H](N)CCCCN)C(C)C)C(=O)N[C@@H](CC(C)C)C(N)=O [KFLKKAKKFGKAFVKIL]
- MIC [20]: 3.91 µM (≈ 7.8 µg/mL)
- MIC [21]: 5.67 µM (≈ 11.3 µg/mL)
- MIC [22]: 1 µM (≈ 2 µg/mL)
- MIC [23]: 16 µM (≈ 32 µg/mL)
- MIC [24]: 1.96 µM (≈ 3.91 µg/mL)
- MIC [25]: 15.6 µM (≈ 31.2 µg/mL)
- MIC [26]: 0.251 µM (≈ 0.5 µg/mL)

SMILES: CC[C@H](C)[C@H](NC(=O)[C@H](CS)NC(=O)[C@H](Cc1cnc[nH]1)NC(=O)[C@H](CCCN=C(N)N)NC(=O)[C@@H](N)CCCN=C(N)N)C(=O)N[C@@H](CCCCN)C(=O)N[C@@H](CCCCN)C(=O)N[C@@H](CS)C(=O)N[C@@H](CCSC)C(=O)N[C@@H](CCCCN)C(=O)N[C@@H](CO)C(=O)N[C@@H](CCCN=C(N)N)C(=O)N[C@@H](CCCCN)C(=O)N[C@@H](Cc1cnc[nH]1)C(=O)N[C@@H](CC(N)=O)C(=O)N[C@@H](CCC(=O)O)C(=O)N[C@@H](CCCN=C(N)N)C(=O)N[C@@H](CCSC)C(=O)N[C@H](C(=O)N[C@@H](CCCN=C(N)N)C(=O)N[C@H](C(=O)N[C@@H](CCCN=C(N)N)C(=O)N[C@@H](CCCN=C(N)N)C(=O)N[C@@H](CCCCN)C(=O)O)[C@@H](C)CC)[C@@H](C)CC [RRHCIKKCMKSRKHNERMIRIRRK]
- MIC [34]: 5 µM (≈ 15.8 µg/mL)
- MIC [35]: ≥ 40 µM
- MIC [36]: ≥ 300 µM

Next, values leading:

- MIC [1]: 8.39 µM (≈ 7.99 µg/mL)
- MIC [2]: ≥ 36.7 µM
- MIC [3]: 21 µM (≈ 20 µg/mL)
SMILES: CC(C)C[C@H](NC(=O)[C@H](CC(C)C)NC(=O)[C@H](CC(C)C)NC(=O)[C@H](CC(C)C)NC(=O)[C@H](CC(C)C)NC(=O)[C@H](CCCCN)NC(=O)[C@H](CC(C)C)NC(=O)[C@@H](N)CCCCN)C(N)=O [KLKLLLLL]

- MIC [17]: ≥ 123 µM
- MIC [18]: ≥ 43.5 µM
- MIC [19]: 10.9 µM (≈ 11.3 µg/mL)
SMILES: CC(C)C[C@H](NC(=O)[C@H](CC(C)C)NC(=O)[C@H](CCCCN)NC(=O)[C@H](CCCCN)NC(=O)[C@H](CC(C)C)NC(=O)[C@H](CC(C)C)NC(=O)[C@H](CCCCN)NC(=O)[C@H](CC(C)C)NC(=O)[C@H](C)N)C(N)=O [ALKLLKKLL]

- MIC [27]: ≥ 35.4 µM
- MIC [28]: 2 µM (≈ 3 µg/mL)
- MIC [29]: 5.92 µM (≈ 8.89 µg/mL)
- MIC [30]: 22.4 µM (≈ 33.6 µg/mL)
- MIC [31]: 1.73 µM (≈ 2.6 µg/mL)
- MIC [32]: 22.4 µM (≈ 33.6 µg/mL)
- MIC [33]: 5.92 µM (≈ 8.89 µg/mL)
SMILES: CC[C@H](C)[C@H](NC(=O)[C@H](CCCCN)NC(=O)[C@H](CCCCN)NC(=O)[C@H](Cc1ccccc1)NC(=O)[C@H](CC(C)C)NC(=O)[C@H](CCCCN)NC(=O)[C@@H](N)Cc1c[nH]c2ccccc12)C(=O)N[C@@H](CC(C)C)C(=O)N[C@@H](CCCCN)C(=O)N[C@@H](Cc1c[nH]c2ccccc12)C(=O)N[C@@H](CC(C)C)C(N)=O [WKLFKKILKWL]
